Experiment [1] concerns E. coli. Kind of experiment: Bacteria detection by fluorescence in T media (probe uptake), E. coli. Type of experiment: cell-based. As to conditions: dye not conjugated to an enterobactin analogue; control experiment (FIG. 28). The procedure:
Sample Processing for Bacteria Detection by Fluorescence in T Media Experiments with Bacteria Genus
• 1. Bacteria is prepared • a. Sub bacteria onto blood agar and incubate overnight • b. Select several colonies and grow overnight in LB media at 37° C. in room air on orbital shaker • c. 100 μl of overnight culture is placed into 100 ml T media, incubated for 5 hours (E. coli, Salmonella, A. baumannii, Klebsiella pneumoniae) or 10 hours (B. subtillus, S. aureus) • d. Quantitate using 1:10 dilution and plating 100 μl of dilutions onto blood agar • 2. Prepare the samples in 1.5 microcentrifuge tubes, vortex, in triplicate • a. For each bacteria • i. 1 ml bacteria+25 μl Tris • ii. 1 ml bacteria+25 μl Probe • b. For each run include controls • i. 1 ml T media+25 μl Tris • ii. […] 24+ hours count colonies on quantitative cultures
The effect of probe chemical structure on response can be seen in FIG. 28 in an increase in fluorescence intensity after incubation of E. coli with Ga-TREN-CAM-C2-OG (example 1), Ga-TREN-GlyCAM-GluCAM-OG (example 2), Ga-3,3-LiCAM-GluCAM-OG (example 4), Ga-2,2-LiCAM-GluCAM (example 5), and the non-targeted dye OREGON GREEN dye. […]
The effect of metal ion on probe uptake can be seen in FIG. 29 in anincrease in fluorescence intensity after incubation of E. coli with Ga-3,3-LiCAM-GluCAM-OG, Fe-3,3-LiCAM-GluCAM, the apo probe, 3,3-LiCAM-GluCAM-OG, and the non-target OREGON GREEN dye. […]

The subject of experiment [2] is E. coli. The note with it: Thulasiraman et al., J Bacteriol. 1998; cited from earlier work.
In experiment [3] the target is FepA (Escherichia coli, UniProt P05825). The note with it: Thulasiraman et al., J Bacteriol. 1998; cited from earlier work.
Sequence of FepA (P05825 23-746): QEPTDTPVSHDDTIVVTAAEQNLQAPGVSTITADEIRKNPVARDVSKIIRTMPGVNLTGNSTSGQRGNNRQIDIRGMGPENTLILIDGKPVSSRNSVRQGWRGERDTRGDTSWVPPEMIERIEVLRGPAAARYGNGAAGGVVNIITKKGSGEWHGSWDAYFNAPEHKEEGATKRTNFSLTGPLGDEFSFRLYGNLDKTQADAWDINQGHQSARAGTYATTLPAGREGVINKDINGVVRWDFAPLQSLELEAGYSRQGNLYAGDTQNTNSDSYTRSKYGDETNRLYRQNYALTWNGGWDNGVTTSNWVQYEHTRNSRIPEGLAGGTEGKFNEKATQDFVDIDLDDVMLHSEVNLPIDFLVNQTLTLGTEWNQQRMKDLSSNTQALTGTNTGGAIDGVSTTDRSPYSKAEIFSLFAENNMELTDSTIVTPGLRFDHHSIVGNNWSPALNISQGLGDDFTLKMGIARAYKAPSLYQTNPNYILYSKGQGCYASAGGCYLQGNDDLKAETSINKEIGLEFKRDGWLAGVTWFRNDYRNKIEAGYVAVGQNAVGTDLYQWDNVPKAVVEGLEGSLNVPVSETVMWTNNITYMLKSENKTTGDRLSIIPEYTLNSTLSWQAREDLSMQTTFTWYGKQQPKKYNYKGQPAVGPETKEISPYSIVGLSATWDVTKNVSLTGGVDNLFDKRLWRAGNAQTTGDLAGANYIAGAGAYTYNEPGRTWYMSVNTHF

Take OREGON GREEN: the accumulation in bacteria entry in experiment [1] was “does not accumulate in bacteria”.
As to `O=C(NCCN(CCNC(=O)c1cccc(O)c1O)CCNC(=O)c1cccc(O)c1O)c1cccc(O)c1O` [TREN-CAM], the “uptake by E. coli” value in experiment [2] is reported as “actively taken up by E. coli”. Besides, in experiment [3], the “recognition by FepA” value was “recognized by FepA”.
